The target in test [1] is T1, IKK (Homo sapiens, UniProt O14920+O15111). Kind of test: Endogenous IKK activity (kinase assay) in treated, stimulated HeLa cells. Also noted: Endogenous IKK was immunoprecipitated from TNFα-stimulated HeLa cells; endogenous in cells; host or cells: HeLa. It counts as cell-based. To be noted: for effect on IKK activity: HeLa cells stimulated with TNFα (PGA1: IL-1 or TNFα). On the procedure: Cells used in the experiments described herein were cultured in either RPMI 1640 (Jurkat cells) or DMEM (HeLa and COS cells), supplemented with 10% FBS and antibiotics. Cells were stimulated with either 25 ng/ml TPA, 20 ng/ml recombinant TNFα, or 10 ng/ml interleukin 1β (Sigma). PGA1, 15dPGJ2, T×B2, LTB4, AA and other PGs (Cayman) dissolved in ethanol were used as well, as known in the art (See e.g., Rossi et al., 94:746-750 [1997]). Controls received equal amounts of ethanol. Transfections were performed using Lipofectamine Plus (GIBCO) for HeLa and COS cells and DEAE-dextran (Sigma) for Jurkat cells. Xpress-tagged NIK, Xpress-tagged MEKK1, HA-tagged IKKα, and HA-tagged IKKβ were also used (See e.g., Zandi et al., Science 281:1360-1363 [1998]; and Delhase et al., Science 284:309-313 [1999]). COX2 and cPLA2 expression vectors were obtained from Dr. L. Feng (See also, Hirose et al., J. Am. Soc. Nephrol., 9:408-416 [1998]). PGD synthase was cloned from HT29 colon carcinoma cell line cDNA by PCR and subcloned into a pCDNA3 vector. Cells were lysed in buffer B (50 mM Tris-HCl, pH 7.5, 400 mM NaCl, 1 mM EDTA, 1 mM EGTA, 1% Triton, 0.5% NP-40, 10% glycerol, and supplemented with 20 mM β-glycerophosphate, 10 mM PNPP, […] 1 mM PMSF, 20 μg/ml aprotinin, 2.5 μg/ml leupeptin, 8.3 μg/ml bestatin, 1.7 μg/ml pepstatin, and 2 mM DTT).
T1 sequence (O14920 whole entry): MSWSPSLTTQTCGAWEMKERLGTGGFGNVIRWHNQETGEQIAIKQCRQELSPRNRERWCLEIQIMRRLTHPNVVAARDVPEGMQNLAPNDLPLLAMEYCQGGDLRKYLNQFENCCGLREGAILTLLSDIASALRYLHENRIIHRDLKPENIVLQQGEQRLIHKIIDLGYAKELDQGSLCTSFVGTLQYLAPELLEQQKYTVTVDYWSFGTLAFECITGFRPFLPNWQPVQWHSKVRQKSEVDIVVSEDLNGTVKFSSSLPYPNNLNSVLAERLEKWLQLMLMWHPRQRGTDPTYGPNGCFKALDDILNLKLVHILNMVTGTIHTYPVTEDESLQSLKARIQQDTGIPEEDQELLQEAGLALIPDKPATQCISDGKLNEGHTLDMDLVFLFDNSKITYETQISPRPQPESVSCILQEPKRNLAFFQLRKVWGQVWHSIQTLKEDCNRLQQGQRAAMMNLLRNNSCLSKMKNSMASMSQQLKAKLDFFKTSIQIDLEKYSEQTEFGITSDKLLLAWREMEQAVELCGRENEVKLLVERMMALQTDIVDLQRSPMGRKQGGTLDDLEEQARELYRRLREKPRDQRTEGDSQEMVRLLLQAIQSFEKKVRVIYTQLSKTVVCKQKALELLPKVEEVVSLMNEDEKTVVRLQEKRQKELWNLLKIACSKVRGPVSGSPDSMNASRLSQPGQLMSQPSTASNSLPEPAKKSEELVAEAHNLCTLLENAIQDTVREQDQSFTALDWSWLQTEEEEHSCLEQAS
T1 sequence (O15111 whole entry): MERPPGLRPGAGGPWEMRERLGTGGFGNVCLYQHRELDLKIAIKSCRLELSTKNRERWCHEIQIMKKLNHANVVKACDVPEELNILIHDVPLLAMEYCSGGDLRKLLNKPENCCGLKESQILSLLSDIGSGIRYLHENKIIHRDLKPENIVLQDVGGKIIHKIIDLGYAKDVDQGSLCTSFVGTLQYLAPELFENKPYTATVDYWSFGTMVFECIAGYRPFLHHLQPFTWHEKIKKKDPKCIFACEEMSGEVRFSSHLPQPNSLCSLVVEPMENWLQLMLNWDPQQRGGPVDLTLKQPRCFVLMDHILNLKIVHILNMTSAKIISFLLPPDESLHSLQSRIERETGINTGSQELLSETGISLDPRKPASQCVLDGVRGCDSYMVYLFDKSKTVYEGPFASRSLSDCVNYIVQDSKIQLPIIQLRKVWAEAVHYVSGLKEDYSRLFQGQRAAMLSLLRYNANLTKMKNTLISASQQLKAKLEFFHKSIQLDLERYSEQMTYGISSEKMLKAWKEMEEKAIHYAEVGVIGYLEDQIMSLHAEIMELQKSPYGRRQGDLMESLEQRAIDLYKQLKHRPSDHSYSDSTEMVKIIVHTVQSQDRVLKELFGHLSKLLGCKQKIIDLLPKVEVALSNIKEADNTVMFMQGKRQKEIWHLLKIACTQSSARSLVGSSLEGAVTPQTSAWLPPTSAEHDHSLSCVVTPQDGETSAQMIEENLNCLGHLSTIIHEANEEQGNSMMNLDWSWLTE
T1 sequence (Q9Y6K9 whole entry partner): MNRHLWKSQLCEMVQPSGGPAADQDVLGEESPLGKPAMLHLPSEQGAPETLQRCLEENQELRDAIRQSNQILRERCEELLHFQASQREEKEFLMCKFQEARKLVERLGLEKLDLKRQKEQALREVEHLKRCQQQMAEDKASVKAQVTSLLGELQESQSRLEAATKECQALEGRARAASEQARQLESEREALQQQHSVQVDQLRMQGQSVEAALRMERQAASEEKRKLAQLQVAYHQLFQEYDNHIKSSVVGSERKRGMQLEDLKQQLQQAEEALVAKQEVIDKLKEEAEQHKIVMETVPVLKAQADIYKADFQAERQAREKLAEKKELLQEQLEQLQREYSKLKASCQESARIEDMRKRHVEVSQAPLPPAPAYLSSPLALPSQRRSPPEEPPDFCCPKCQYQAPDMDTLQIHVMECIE
(§1) Cell lysates were incubated with anti-IKKα (Pharmingen), anti-HA (12CA5; Pharmingen), anti-JNK1 (333.8; Pharmingen), or anti-p38 (New England Biolabs) for 2 hours. Then, 15 μl protein A-Sepharose (Sigma) were added and the mixture was allowed to incubate for 1 hour. After extensive washing, kinase assays were performed as known in the art (See e.g., DiDonato et al., Nature 388:548-554 [1997]). Endogenous IKK, HA-tagged IKKα, endogenous JNK1, and p38 activities were determined with GST-1κBα(1-54), GST-c-Jun(1-79), and GST-ATF2 as substrates.
(§2) In this Example, experiments to determined the effects of arachidonic acid and its metabolites on IKK activity in vivo and in vitro are described. HeLa cells were treated with 50 μM AA, PGA1, PGB2, PGD2, PGE1, PGE2, PGF1α, or thromboxane B2 (T×B2), 1 μM LTB4, or 5 μM 15dPGJ2, for 2 hours in RPMI containing 10% FCS, and stimulated with TNFα for 10 minutes. Cell lysates were then assayed for endogenous IKK activity and recovery. In this FIGURE, “control” indicates unstimulated cells, and “-” indicates treatment with diluent alone. In addition, IKK was immunoprecipitated from TNFα-stimulated HeLA cells and incubated in vitro with 100 μM AA, PGA1, PGB2, PGD2, PGE1, PGE2, PGF1α, or T×B2, 2 μM LTB4 or 10 μM 15dPGJ2, followed by kinase assay and immunoblot analysis. In this FIGURE, “control” indicates to unstimulated cells, and “-”indicates 1% ethanol.

In test [2] the target is T1, IKK. Kind of test: In vitro kinase assay of IKK immunoprecipitated from TNFα-stimulated HeLa cells. It is filed as biochemical. Also on record: Endogenous IKK was immunoprecipitated from TNFα-stimulated HeLa cells; endogenous in cells; host or cells: HeLa. Conditions: for IC50: IKK immunoprecipitated from TNFα-stimulated HeLa cells. Here is the method: as §1
Endogenous IKK was immunoprecipitated from TNFα-stimulated HeLa cells and the kinase activity determined in the presence of different concentrations of PGA1 (the results of which are shown in FIG. 2B) or 15dPGJ2 (the results of which are shown in FIG. 2C).
as §2
Many protein kinase inhibitors compete with binding of ATP, but preincubation in the presence of increasing concentrations of ATP had no effect on inhibition of IKKβ by 15dPGJ2, as indicated in FIG. 6A. […] The pellets were rinsed and kinase activity was measured.

Another test addresses T2, IKKβ(C179A) (Homo sapiens, UniProt O14920, C179A).
T2 sequence (O14920 1-756 C179A): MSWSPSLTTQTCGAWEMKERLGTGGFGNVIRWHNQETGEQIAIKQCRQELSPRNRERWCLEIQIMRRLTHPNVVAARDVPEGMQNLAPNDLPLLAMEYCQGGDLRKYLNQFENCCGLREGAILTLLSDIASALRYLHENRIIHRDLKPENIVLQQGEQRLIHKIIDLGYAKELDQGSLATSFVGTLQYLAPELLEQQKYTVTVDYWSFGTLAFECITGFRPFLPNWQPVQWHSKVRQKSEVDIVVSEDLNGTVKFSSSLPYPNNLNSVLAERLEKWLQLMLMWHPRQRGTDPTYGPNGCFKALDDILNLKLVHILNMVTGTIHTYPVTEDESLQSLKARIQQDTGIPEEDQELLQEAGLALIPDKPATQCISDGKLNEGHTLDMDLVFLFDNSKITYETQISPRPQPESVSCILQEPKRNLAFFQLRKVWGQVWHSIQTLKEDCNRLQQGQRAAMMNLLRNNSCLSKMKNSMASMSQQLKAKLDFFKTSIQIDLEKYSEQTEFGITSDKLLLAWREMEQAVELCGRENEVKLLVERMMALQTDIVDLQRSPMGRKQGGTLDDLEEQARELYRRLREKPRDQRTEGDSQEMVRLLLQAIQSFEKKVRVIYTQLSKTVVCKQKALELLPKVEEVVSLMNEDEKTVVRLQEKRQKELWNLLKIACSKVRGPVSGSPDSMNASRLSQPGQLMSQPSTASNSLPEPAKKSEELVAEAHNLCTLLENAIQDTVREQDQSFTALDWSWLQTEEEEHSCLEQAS
The experiment in a line: Recombinant IKKβ(C179A) (Sf9) kinase activity. Conditions: FIG. 6D; PGA1 data not shown. It is filed as biochemical. Also on record: FLAG; made in house; host or cells: Sf9 (baculovirus). On the procedure: In addition, recombinant IKKβ was expressed in Sf9 cells and purified as described (Zandi et al., supra). AA, PGs, LTB4, and T×B2 were added to washed imnmunoprecipitates of recombinant IKKβ in kinase buffer to a final volume of 500 μl. After 1.5 hours at 4° C., the immunoprecipitates were washed and the kinase activity determined. Western blot analysis was also performed as known in the art (See e.g., Rossi et al., supra).

“Also recorded” adds a separate entry of the source.

As for `CCCCC/C=C/C=C1/C(=O)C=C[C@@H]1C/C=C\CCCC(=O)O` [15dPGJ2, 15-deoxy-Δ^12-14-PGJ2], at IKK [1], the “effect on IKK activity” value is on record as “inhibited”. The IC50 came out at 5.08 µM on IKK [1] (HeLa cells, TNFα, read-out: half-maximal inhibition of IKK activity) and 7.08 µM at IKK [2]. Also, the “effect of pre-incubation with increasing ATP on inhibition (ATP competition)” value on IKK [2] (15dPGJ2 0-30 μM with or without ATP, 4° C., 30 minutes) is on record as “had no effect; also recorded: not a competitive inhibitor of ATP binding”. On IKKβ(C179A), the “sensitivity of recombinant IKKβ(C179A)” value was “resistant”.
`CCCCC[C@H](O)/C=C/[C@H]1C=CC(=O)C1CCCCCCC(=O)O` (some centres unmarked) [PGA1, prostaglandin A1]: the “effect on IKK activity” value on IKK [1] is listed as “inhibited”. This compound also came in with an IC50 against IKK [2] of 79.8 µM. In addition, the “sensitivity of recombinant IKKβ(C179A)” value at IKKβ(C179A) is recorded as “resistant”.

The values above are taken from patent US6649654B1, “Methods for identifying and using IKK inhibitors” (The Regents of the University of California, priority 1999, dated 2003).
